In data set [1] the target is T1, METTL3 (Homo sapiens, UniProt Q86U44).
T1 construct: METTL3–14 degradation up to 70% of the endogenous level; endogenous in cells; host or cells: MOLM-13, PC3, DU145
In words: Cellular degradation assay (Western blot), METTL3 in MOLM-13. It counts as cell-based. The settings on record: MOLM-13, 24 h, 2 μM compound. The procedure: (§1) MOLM-13, NOMO-1, THP-1, Kasumi-1, PC3, and DU145 cell lines were obtained from DSMZ-German Collection of Microorganisms and Cell Cultures GmbH. Cells were cultured in RPMI 1640 medium (11875093, Thermo Fisher Scientific) containing 10% FBS (16140071, Thermo Fisher Scientific) and 1% penicillin-streptomycin (15140122, Thermo Fisher Scientific) in 5% CO2 at 37 °C in a humidified incubator, with maintained cell densities at 0.5–1 × 10^6 cells/mL. All cell lines were tested negative for mycoplasma contamination (PCR-based assay by Microsynth, Switzerland).
(§2) METTL3 (and METTL14) protein degradation was monitored by Western blot. Cells were treated with the indicated concentration of PROTACs or DMSO control (0.1% (v/v)) for 24h, 37 °C with 5% CO2. Samples were then collected and lysed with RIPA buffer with added protease inhibitors (11697498001, Roche). After SDS-PAGE, proteins were transferred to a nitrocellulose membrane, blocked (with 5% milk, 0.5% BSA in TBST buffer), and incubated overnight with primary antibodies. The following antibodies were used: GAPDH (no. 2118, Cell Signaling, 1:4000), β-actin (ab8226, Abcam, 1:2000), METTL3 (ab195352, Abcam, 1:1000), and METTL14 (ab220031, Abcam, 1:1000). Membranes were scanned using an LI-COR Odyssey DLx imager after incubation with appropriate secondary antibodies (antimouse IgG IRDye 680RD (926–68072, LI-COR, 1:10000) and goat anti-Rabbit IgG IRDye 800CW (926–32211, LI-COR, 1:10000)). Densitometry was performed in Image Studio Lite software and analyzed in GraphPad Prism 9.

The subject of data set [2] is METTL14. The data set can be described thus: Cellular degradation assay (Western blot), METTL14 in MOLM-13. Format: cell-based, human. The settings on record: MOLM-13, 24 h, 2 μM compound. Here is the method:
as §1, §2
In general terms: A western blot detects proteins with antibodies after separation by electrophoresis.

Data set [3] has as its target T2, ternary complex CRBN/PROTAC/METTL3–14 (Homo sapiens, UniProt Q86U44+Q96SW2).
T2 construct: methyltransferase domains (MTD) of METTL3 (residues 354–580); His6 (N, cleaved yes); made in house; host or cells: METTL3-MTD/METTL14-MTD: baculovirus/Sf9; CRBN-TBD: E. coli Rosetta (DE3), co-expressed with BirA
In words: FRET-based ternary complex formation assay (TCFA). Format: binding. The settings on record: for TCFA amplitude (mean ± SEM): Hook curve amplitude, fraction of the maximum of compound 16; for ECmax (nM) ± SD: PROTAC concentration at the maximum of the signal in the TCFA; for ECmax: TCFA, peak of the Hook curve. The procedure: For protein expression, suspension cultures of Sf9 cells in […] medium (Thermo Fisher) were infected at a density of 2 × 10^6 mL^–1. […] The complex was further purified by size exclusion chromatography using a Superdex 200 Increase 10/300 GL column (Cytiva) in 20 mM Tris-Cl, pH 8.0, and 200 mM KCl. The complex was aliquoted and flash-frozen in liquid nitrogen and stored at −80 °C until further use.
Ternary complex formation between the PROTACs, METTL3, and CRBN was quantified by a homogeneous time-resolved fluorescence (HTRF)-based enzyme assay. […] Curves of titrations with the PROTACs were plotted in GraphPad Prism 9.5.1 and fitted with a Gaussian function, if appropriate. […] CRBN^TBD-Avi(biotin) was used at a final concentration of 10 nM. […] Anti-GST Eu^3+-labeled antibody (Cisbio, 61GSTKLB) was used at a final concentration of 0.8 nM. The final reaction volume was 20 μL in 50 mM HEPES (pH 7.5), 150 mM NaCl, 0.1% BSA, 100 mM KF. […] The ratio of the emissions [drawing 1] was considered for further analysis. […] The concentrations resulting in the maximum signal (ECmax) and the amplitudes of the Hook curves were determined from the parameters of the Gaussian fit (if appropriate) or as the coordinates of the data-point with the highest TR-FRET signal.
For the ternary complex formation assay (TCFA), one of the protein partners must have a GST-tag and the other a biotin-tag.

A short description of data set [4]: Cell viability assay (CellTiter-Glo) on MOLM-13. Format: cell-based. As to conditions: human, MOLM-13 cells, average of two biological replicates; for viability at 72 h, […]: 2.5 µM. Here is the method: as §1
Cell viability was determined using a CellTiter-Glo luminescent cell viability assay (Promega) based on the detection of ATP according to the manufacturer’s instructions. 100 μL of the reagent was added to each well and incubated for 10 min at room temperature. […] Background luminescence value was obtained from wells containing the CellTiter-Glo reagent and medium without cells. The resulting data was analyzed in GraphPad Prism 9.

Data set [5] concerns the target METTL3-14 (Homo sapiens, UniProt Q86U44). In words: biochemical. More on the design: with the full-length complex, the recombinant complex construct pFastBacDual-StrepII-GFP-TEV-METTL3-His-TEV-METTL14 was expressed; StrepII (N); GFP (N); TEV site (N); made in house; host or cells: baculovirus/Sf9 insect cells. The settings on record: inhibition of catalytic activity of METTL3-14, binary FRET assay. From the text: For determining the half maximal inhibitory concentration (IC50) with the full-length complex, the recombinant complex construct pFastBacDual-StrepII-GFP-TEV-METTL3-His-TEV-METTL14 was expressed using the baculovirus/Sf9 insect cell expression system and purified as described previously.[21]
The inhibitory potencies of the PROTACs for METTL3 were quantified by a homogeneous time-resolved fluorescence (HTRF)-based enzyme assay as previously described.[40]

Values joined by “and” are separate entries in the source; they are usually repeats but may differ in a detail not shown here. Identical values can stand only once. Some results are limits rather than exact numbers.

METTL3-14, sequence (Q86U44 whole entry): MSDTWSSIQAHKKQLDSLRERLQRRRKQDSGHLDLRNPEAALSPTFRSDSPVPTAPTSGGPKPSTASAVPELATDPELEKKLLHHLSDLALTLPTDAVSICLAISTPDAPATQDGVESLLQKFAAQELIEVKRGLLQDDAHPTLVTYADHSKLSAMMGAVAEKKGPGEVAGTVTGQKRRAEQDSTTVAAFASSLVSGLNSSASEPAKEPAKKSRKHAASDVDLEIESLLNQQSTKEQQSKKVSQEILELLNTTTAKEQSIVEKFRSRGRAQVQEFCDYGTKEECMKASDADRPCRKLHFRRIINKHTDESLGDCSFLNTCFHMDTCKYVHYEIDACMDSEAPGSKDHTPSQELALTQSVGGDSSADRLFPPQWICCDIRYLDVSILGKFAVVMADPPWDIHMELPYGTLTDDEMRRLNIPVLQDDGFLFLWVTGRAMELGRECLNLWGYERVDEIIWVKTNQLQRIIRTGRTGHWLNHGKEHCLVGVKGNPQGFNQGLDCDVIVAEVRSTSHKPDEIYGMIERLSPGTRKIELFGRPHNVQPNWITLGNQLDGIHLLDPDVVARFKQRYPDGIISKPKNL
METTL3-14, sequence (Q9HCE5 whole entry, further chain): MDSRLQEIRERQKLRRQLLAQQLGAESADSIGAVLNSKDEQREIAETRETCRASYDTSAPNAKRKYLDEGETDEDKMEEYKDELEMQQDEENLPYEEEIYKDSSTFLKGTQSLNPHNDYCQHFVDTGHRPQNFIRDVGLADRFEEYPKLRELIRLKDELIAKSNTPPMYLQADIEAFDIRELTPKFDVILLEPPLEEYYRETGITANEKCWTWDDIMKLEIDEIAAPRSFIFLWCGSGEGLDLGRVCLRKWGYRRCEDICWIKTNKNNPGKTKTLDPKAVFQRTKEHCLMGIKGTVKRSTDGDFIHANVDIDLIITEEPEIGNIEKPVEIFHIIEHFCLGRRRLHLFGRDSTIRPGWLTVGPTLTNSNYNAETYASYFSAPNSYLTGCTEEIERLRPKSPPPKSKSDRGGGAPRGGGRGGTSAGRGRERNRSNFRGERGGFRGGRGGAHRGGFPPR
T2 sequence (Q86U44 354-580): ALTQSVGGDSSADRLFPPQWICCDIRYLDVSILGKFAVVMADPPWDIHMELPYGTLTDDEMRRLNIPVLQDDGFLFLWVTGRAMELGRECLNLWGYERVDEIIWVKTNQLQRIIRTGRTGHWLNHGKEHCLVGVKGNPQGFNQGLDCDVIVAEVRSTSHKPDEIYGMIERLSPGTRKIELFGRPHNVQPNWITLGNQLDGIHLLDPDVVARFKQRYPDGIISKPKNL
T2 sequence (Q9HCE5 107-395 partner limits assumed): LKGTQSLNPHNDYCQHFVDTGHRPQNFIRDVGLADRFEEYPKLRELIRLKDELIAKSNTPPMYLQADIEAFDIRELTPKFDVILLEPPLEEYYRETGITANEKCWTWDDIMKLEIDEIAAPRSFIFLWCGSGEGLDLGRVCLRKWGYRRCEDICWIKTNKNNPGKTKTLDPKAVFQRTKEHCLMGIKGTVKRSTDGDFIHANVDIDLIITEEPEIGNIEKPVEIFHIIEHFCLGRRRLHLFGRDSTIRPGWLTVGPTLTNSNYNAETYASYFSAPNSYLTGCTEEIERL
T2 sequence (Q96SW2 318-442): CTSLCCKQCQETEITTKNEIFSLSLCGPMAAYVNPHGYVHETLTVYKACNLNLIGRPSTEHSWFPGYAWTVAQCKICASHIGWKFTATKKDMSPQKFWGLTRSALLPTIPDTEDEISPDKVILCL
T1 sequence (Q86U44 2-580 limits assumed): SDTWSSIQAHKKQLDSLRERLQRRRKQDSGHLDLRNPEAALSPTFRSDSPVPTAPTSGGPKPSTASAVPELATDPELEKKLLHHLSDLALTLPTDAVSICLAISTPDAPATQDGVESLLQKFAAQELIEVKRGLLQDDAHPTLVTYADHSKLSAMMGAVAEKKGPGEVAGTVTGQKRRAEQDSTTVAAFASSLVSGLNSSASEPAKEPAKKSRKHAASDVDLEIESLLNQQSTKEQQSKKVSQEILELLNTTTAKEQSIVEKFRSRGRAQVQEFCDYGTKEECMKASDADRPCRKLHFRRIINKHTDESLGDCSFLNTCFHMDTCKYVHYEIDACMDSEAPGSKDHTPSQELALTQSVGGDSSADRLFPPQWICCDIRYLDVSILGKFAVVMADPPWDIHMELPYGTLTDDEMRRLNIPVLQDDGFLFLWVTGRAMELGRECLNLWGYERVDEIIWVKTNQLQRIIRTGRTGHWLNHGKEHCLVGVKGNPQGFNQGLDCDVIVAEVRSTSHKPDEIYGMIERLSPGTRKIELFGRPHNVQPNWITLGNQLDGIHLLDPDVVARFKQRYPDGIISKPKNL
T1 sequence (Q9HCE5 whole entry partner): as the sequence (Q9HCE5 whole entry, further chain) above

A word on the viability: it is a read-out of living cells in per cent, often relative to untreated cells. In the case of `CC1(C)CCN(Cc2cc(F)c(N3CC(=O)NC4(CCN(c5cc(NCC6CCN(C(=O)CN7CCN(c8cccc9c8C(=O)N(C8CCC(=O)NC8=O)C9=O)CC7)CC6)ncn5)CC4)C3)cc2F)CC1` (stereo not drawn) [Compound 35], in data set [1], the “MOLM-13 West. blot at 24h 2 μM comp conc. Degradation (%) of METTL3” value (shortened to “MOLM-13 West. blot … (%) of METTL3”) is 21% and 21 ± 11%. Further, the “MOLM-13 West. blot at 24h 2 μM comp conc. Degradation (%) of METTL14” value (from here on “MOLM-13 West. blot … (%) of METTL14”) in data set [2] stood at 25 ± 3%. In data set [3], the “TCFA amplitude (mean ± SEM)” value is 0.7 ± 0.2 and the “ECmax (nM) ± SD” value came to 20 ± 0 nM. Further, the viability at 72 h, 10 µM in data set [4] is 105%.
With `CC1(C)CCN(Cc2cc(F)c(N3CC(=O)NC4(CCN(c5cc(NCC6CCN(C(=O)CNc7cccc8c7C(=O)N(C7CCC(=O)NC7=O)C8=O)CC6)ncn5)CC4)C3)cc2F)CC1` (stereo not drawn) [Compound 21], in data set [1], the “MOLM-13 West. blot … (%) of METTL3” value is 21% and 21 ± 9%. Further, the “MOLM-13 West. blot … (%) of METTL14” value in data set [2] is given as 23 ± 9%. Besides, in data set [3], the “TCFA amplitude (mean ± SEM)” value is 1.3 ± 0.1, the “ECmax (nM) ± SD” value amounted to 60 ± 30 nM and the ECmax came out at 0.06 µM. In data set [4], the viability at 72 h, 0.6 µM turned out to be 104%; the viability at 72 h, 1.25 µM was 105%; the viability at 72 h, […] was 110%; the viability at 72 h, 5 µM is 110%. Besides, the viability at 72 h, 10 µM in data set [4] was 102%.
On to `CC1(C)CCN(Cc2cc(F)c(N3CC(=O)NC4(CCN(c5cc(NCc6ccc(N7CCN(c8cccc9c8C(=O)N(C8CCC(=O)NC8=O)C9=O)CC7)cc6)ncn5)CC4)C3)cc2F)CC1` (stereo not drawn) [Compound 34], for which the “MOLM-13 West. blot … (%) of METTL14” value in data set [2] was below 10%. Further, in data set [3], the “TCFA amplitude (mean ± SEM)” value is on record as 0.2 ± 0.1 and the “ECmax (nM) ± SD” value was found to be 120 ± 30 nM. In data set [4], the viability at 72 h, 0.6 µM stood at 95.8%; the viability at 72 h, 1.25 µM stood at 97.3%; the viability at 72 h, […] turned out to be 96.3%; the viability at 72 h, 5 µM stood at 99.2%. Also, in data set [4], the viability at 72 h, 10 µM worked out at 101%.
By IC50 is commonly meant the concentration that inhibits the measured activity by half. Regarding `CC1(C)CCN(Cc2ccc(N3CC(=O)NC4(CCN(c5cc(NCCCNC(=O)CCOCCOCCOCCOCCOCCNc6cccc7c6C(=O)N(C6CCC(=O)NC6=O)C7=O)ncn5)CC4)C3)cc2)CC1` (stereo not drawn) [Compound 4], the “MOLM-13 West. blot … (%) of METTL3” value in data set [1] is reported as “/ (Degradation <10% or stabilization)”. Moreover, the “MOLM-13 West. blot … (%) of METTL14” value in data set [2] is given as “/ (Degradation <10% or stabilization)”. Also, in data set [3], the “TCFA amplitude (mean ± SEM)” value was found to be 0.4, the “ECmax (nM) ± SD” value was 2000 (n = 1) nM and the ECmax came out at 2.0 µM. Further, in data set [5], the IC50 was 640 ± 120 nM.
Turning to `CC1(C)CCN(Cc2ccc(N3CC(=O)NC4(CCN(c5cc(NCCCNC(=O)CCCCCCCCCCCCCCNc6cccc7c6CN(C6CCC(=O)NC6=O)C7=O)ncn5)CC4)C3)cc2)CC1` (stereo not drawn) [Compound 7], the “MOLM-13 West. blot … (%) of METTL3” value in data set [1] was “/ (Degradation <10% or stabilization)”. Also, the “MOLM-13 West. blot … (%) of METTL14” value in data set [2] is recorded as “/ (Degradation <10% or stabilization)”. Besides, in data set [3], the “TCFA amplitude (mean ± SEM)” value worked out at 0.1 and the “ECmax (nM) ± SD” value is 5300 (n = 1) nM. Also, the IC50 in data set [5] was found to be 1220 ± 90 nM.
As to `CC1(C)CCN(Cc2cc(F)c(N3CC(=O)NC4(CCN(c5cc(NCCCNC(=O)CCCCCCCCCCn6cc(CNc7cccc8c7C(=O)N(C7CCC(=O)NC7=O)C8=O)nn6)ncn5)CC4)C3)cc2F)CC1` (stereo not drawn) [Compound 13], the “MOLM-13 West. blot … (%) of METTL3” value in data set [1] was found to be 19 ± 20%. For the same compound, in data set [2], the “MOLM-13 West. blot … (%) of METTL14” value worked out at 19 ± 13%. In data set [3], the “TCFA amplitude (mean ± SEM)” value amounted to 0.8 ± 0.0 and the “ECmax (nM) ± SD” value came out at 1800 ± 250 nM. In addition, the IC50 in data set [5] stood at 220 ± 40 nM.
The like results for `CC1(C)CCN(Cc2ccc(N3CC(=O)NC4(CCN(c5cc(NCCCNC(=O)CCCCCCCCNc6cccc7c6CN(C6CCC(=O)NC6=O)C7=O)ncn5)CC4)C3)cc2)CC1` (stereo not drawn) [Compound 5] were, in that order, “/ (Degradation <10% or stabilization)”, “/ (Degradation <10% or stabilization)”, 0.7 ± 0.1, 660 ± 20 nM and 260 ± 30 nM.
For `CC1(C)CCN(Cc2ccc(N3CC(=O)NC4(CCN(c5cc(NCCCNC(=O)CCCCCCCCCCNc6cccc7c6CN(C6CCC(=O)NC6=O)C7=O)ncn5)CC4)C3)cc2)CC1` (stereo not drawn) [Compound 6] the same measures were “/ (Degradation <10% or stabilization)”, “/ (Degradation <10% or stabilization)”, 0.4, 3600 (n = 1) nM and 520 ± 60 nM.
With `CC1(C)CCN(Cc2ccc(N3CC(=O)NC4(CCN(c5cc(NCCCNC(=O)CCOCCOCCOCCOCCNc6cccc7c6C(=O)N(C6CCC(=O)NC6=O)C7=O)ncn5)CC4)C3)cc2)CC1` (stereo not drawn) [Compound 3], in data set [1], the “MOLM-13 West. blot … (%) of METTL3” value was “/ (Degradation <10% or stabilization)”. In addition, in data set [2], the “MOLM-13 West. blot … (%) of METTL14” value was “/ (Degradation <10% or stabilization)”. Besides, in data set [3], the “TCFA amplitude (mean ± SEM)” value is recorded as 0.3 ± 0.2, the “ECmax (nM) ± SD” value was 1900 (n = 1) nM and the ECmax was 1.9 µM. Moreover, the IC50 in data set [5] was found to be 590 ± 130 nM.
As to `CC1(C)CCN(Cc2ccc(N3CC(=O)NC4(CCN(c5cc(NCCCNC(=O)CCCCCCCCCCn6cc(CNc7cccc8c7C(=O)N(C7CCC(=O)NC7=O)C8=O)nn6)ncn5)CC4)C3)cc2)CC1` (stereo not drawn) [Compound 8], the “MOLM-13 West. blot … (%) of METTL3” value in data set [1] is “/ (Degradation <10% or stabilization)”. For the same compound, the “MOLM-13 West. blot … (%) of METTL14” value in data set [2] was “/ (Degradation <10% or stabilization)”. Further, in data set [3], the “TCFA amplitude (mean ± SEM)” value is listed as 0.6 and the “ECmax (nM) ± SD” value was 2200 (n = 1) nM. Further, in data set [5], the IC50 came out at 480 ± 100 nM.

The values are drawn from publication PMC10900215 (JACS Au, 2024).
